ChEMBL document CHEMBL1136280, “Geraniol-derived 1,2,4-trioxanes with potent in-vivo antimalarial activity” (2003)
Where “and” joins values, the source holds several entries; their conditions need not be identical. Equal values may be shown once.

system: Mus musculus; experiment: Number of survival out of 5 mice on day 28 at the dose of 96 mg/kg/day orally; type: functional; details: route oral

| SMILES | Activity |
| --- | --- |
| C=C(CCC(O)c1ccc(Cl)cc1)C1COC2(OO1)C1CC3CC(C1)CC2C3 (centres undefined) | 5 |
| C=C(CCC(O)c1cccc2ccccc12)C1COC2(CCCCC2)OO1 (centres undefined) | 0 |
| C=C(CCC(O)c1ccc(-c2ccccc2)cc1)C1COC2(OO1)C1CC3CC(C1)CC2C3 (centres undefined) | 3 |
| C=C(CCC(O)c1ccccc1)C1COC2(OO1)C1CC3CC(C1)CC2C3 (centres undefined) | 2 |
| C=C(CCC(O)c1ccc(Cl)cc1)C1COC2(CCCCC2)OO1 (centres undefined) | 0 |
| C=C(CCC(O)c1ccc(-c2ccccc2)cc1)C1COC2(CCCCC2)OO1 (centres undefined) | 0 |

system: Mus musculus; experiment: Mean survival time calculated for the mice which died during 28 day observation period at the dose of 96 mg/kg/day orally; type: functional; details: route oral

| SMILES | MST |
| --- | --- |
| C=C(CCC(O)c1ccc(Cl)cc1)C1COC2(OO1)C1CC3CC(C1)CC2C3 (centres undefined) | >28 |
| C=C(CCC(O)c1cccc2ccccc12)C1COC2(CCCCC2)OO1 (centres undefined) | 13 |
| C=C(CCC(O)c1ccc(-c2ccccc2)cc1)C1COC2(OO1)C1CC3CC(C1)CC2C3 (centres undefined) | 17.33 |
| C=C(CCC(O)c1ccccc1)C1COC2(OO1)C1CC3CC(C1)CC2C3 (centres undefined) | 16.57 |
| C=C(CCC(O)c1ccc(Cl)cc1)C1COC2(CCCCC2)OO1 (centres undefined) | 10.2 |
| C=C(CCC(O)c1ccccc1)C1COC2(CCCCC2)OO1 (centres undefined) | 11.6 |
| C=C(CCC(O)c1ccc(-c2ccccc2)cc1)C1COC2(CCCCC2)OO1 (centres undefined) | 13.8 |

system: Mus musculus; experiment: Number of survival out of 5 mice on day 28 at the dose of 24 mg/kg/day i.m.; type: functional; details: route intramuscular

| SMILES | Activity |
| --- | --- |
| C[C@@H]1CC[C@H]2[C@@H](C)C(=O)O[C@@H]3O[C@@]4(C)CC[C@@H]1[C@]32OO4 [ARTEMISININ] | 4 |

system: Mus musculus; experiment: Mean survival time calculated for the mice which died during 28 day observation period at the dose of 48 mg/kg/day orally; type: functional; details: route oral

| SMILES | MST |
| --- | --- |
| C[C@@H]1CC[C@H]2[C@@H](C)C(=O)O[C@@H]3O[C@@]4(C)CC[C@@H]1[C@]32OO4 [ARTEMISININ] | 16 |
| C=C(CCC(O)c1ccc(Cl)cc1)C1COC2(OO1)C1CC3CC(C1)CC2C3 (centres undefined) | 10.2 |
| C=C(CCC(O)c1ccc(-c2ccccc2)cc1)C1COC2(OO1)C1CC3CC(C1)CC2C3 (centres undefined) | 17.57 |
| C=C(CCC(O)c1ccccc1)C1COC2(OO1)C1CC3CC(C1)CC2C3 (centres undefined) | 9 |
| C=C(CCC(O)c1ccc(-c2ccccc2)cc1)C1COC2(CCCCC2)OO1 (centres undefined) | 11.2 |

system: Mus musculus; experiment: Mean survival time calculated for the mice which died during 28 day observation period at the dose of 96 mg/kg/day i.m.; type: functional; details: route intramuscular

| SMILES | MST |
| --- | --- |
| C[C@@H]1CC[C@H]2[C@@H](C)C(=O)O[C@@H]3O[C@@]4(C)CC[C@@H]1[C@]32OO4 [ARTEMISININ] | >28 |
| C=C(CCC(O)c1ccc(Cl)cc1)C1COC2(OO1)C1CC3CC(C1)CC2C3 (centres undefined) | >28 and 15 |
| C=C(CCC(O)c1cccc2ccccc12)C1COC2(CCCCC2)OO1 (centres undefined) | 16 |
| C=C(CCC(O)c1ccc(-c2ccccc2)cc1)C1COC2(OO1)C1CC3CC(C1)CC2C3 (centres undefined) | 14.5 |
| C=C(CCC(O)c1ccccc1)C1COC2(OO1)C1CC3CC(C1)CC2C3 (centres undefined) | >28 and 15.57 |
| C=C(CCC(O)c1ccc(Cl)cc1)C1COC2(CCCCC2)OO1 (centres undefined) | >28 |
| C=C(CCC(O)c1ccccc1)C1COC2(CCCCC2)OO1 (centres undefined) | 14.4 |
| C=C(CCC(O)c1ccc(-c2ccccc2)cc1)C1COC2(CCCCC2)OO1 (centres undefined) | 14 |

system: Mus musculus; experiment: In vivo antimalarial activity against Plasmodium yoelii in Swiss mice (Mus musculus) on day 4 at the dose of 24 mg/kg/day intramuscular.; type: functional; details: not given

| SMILES | Suppression [%] |
| --- | --- |
| C[C@@H]1CC[C@H]2[C@@H](C)C(=O)O[C@@H]3O[C@@]4(C)CC[C@@H]1[C@]32OO4 [ARTEMISININ] | 100 |

system: Mus musculus; experiment: In vivo antimalarial activity against Plasmodium yoelii in Swiss mice (Mus musculus) on day 4 at the dose of 48 mg/kg/day orally; type: functional; details: route oral

| SMILES | Suppression [%] |
| --- | --- |
| C=C(CCC(O)c1ccc(Cl)cc1)C1COC2(OO1)C1CC3CC(C1)CC2C3 (centres undefined) | 90.8 |
| C=C(CCC(O)c1ccc(-c2ccccc2)cc1)C1COC2(OO1)C1CC3CC(C1)CC2C3 (centres undefined) | 100 |
| C=C(CCC(O)c1ccccc1)C1COC2(OO1)C1CC3CC(C1)CC2C3 (centres undefined) | 62.4 |
| C=C(CCC(O)c1ccc(-c2ccccc2)cc1)C1COC2(CCCCC2)OO1 (centres undefined) | 77.5 |

system: Mus musculus; experiment: Number of survival out of 5 mice on day 28 at the dose of 48 mg/kg/day orally; type: functional; details: route oral

| SMILES | Activity |
| --- | --- |
| C=C(CCC(O)c1ccc(Cl)cc1)C1COC2(OO1)C1CC3CC(C1)CC2C3 (centres undefined) | 0 |
| C=C(CCC(O)c1ccc(-c2ccccc2)cc1)C1COC2(OO1)C1CC3CC(C1)CC2C3 (centres undefined) | 2 |
| C=C(CCC(O)c1ccccc1)C1COC2(OO1)C1CC3CC(C1)CC2C3 (centres undefined) | 0 |
| C=C(CCC(O)c1ccc(-c2ccccc2)cc1)C1COC2(CCCCC2)OO1 (centres undefined) | 0 |

system: Mus musculus; experiment: In vivo antimalarial activity against Plasmodium yoelii in Swiss mice (Mus musculus) on day 4 at the dose of 48 mg/kg/day intramuscular.; type: functional; details: not given

| SMILES | Suppression [%] |
| --- | --- |
| C[C@@H]1CC[C@H]2[C@@H](C)C(=O)O[C@@H]3O[C@@]4(C)CC[C@@H]1[C@]32OO4 [ARTEMISININ] | 100 |
| C=C(CCC(O)c1ccc(Cl)cc1)C1COC2(OO1)C1CC3CC(C1)CC2C3 (centres undefined) | 78.9 |
| C=C(CCC(O)c1cccc2ccccc12)C1COC2(CCCCC2)OO1 (centres undefined) | 93.4 |
| C=C(CCC(O)c1ccccc1)C1COC2(OO1)C1CC3CC(C1)CC2C3 (centres undefined) | 98.1 |
| C=C(CCC(O)c1ccc(Cl)cc1)C1COC2(CCCCC2)OO1 (centres undefined) | 97.1 |
| C=C(CCC(O)c1ccccc1)C1COC2(CCCCC2)OO1 (centres undefined) | 90.5 |
| C=C(CCC(O)c1ccc(-c2ccccc2)cc1)C1COC2(CCCCC2)OO1 (centres undefined) | 81 |

system: Mus musculus; experiment: Mean survival time calculated for the mice which died during 28 day observation period at the dose of 24 mg/kg/day orally; type: functional; details: route oral

| SMILES | MST |
| --- | --- |
| C=C(CCC(O)c1ccc(-c2ccccc2)cc1)C1COC2(OO1)C1CC3CC(C1)CC2C3 (centres undefined) | 8.8 |

system: Mus musculus; experiment: In vivo antimalarial activity against Plasmodium yoelii in Swiss mice (Mus musculus) on day 4 at the dose of 24 mg/kg/day orally; type: functional; details: route oral

| SMILES | Suppression [%] |
| --- | --- |
| C=C(CCC(O)c1ccc(-c2ccccc2)cc1)C1COC2(OO1)C1CC3CC(C1)CC2C3 (centres undefined) | 90.4 |

system: Mus musculus; experiment: Number of survival out of 5 mice on day 28 at the dose of 48 mg/kg/day i.m.; type: functional; details: route intramuscular

| SMILES | Activity |
| --- | --- |
| C[C@@H]1CC[C@H]2[C@@H](C)C(=O)O[C@@H]3O[C@@]4(C)CC[C@@H]1[C@]32OO4 [ARTEMISININ] | 5 |
| C=C(CCC(O)c1ccc(Cl)cc1)C1COC2(OO1)C1CC3CC(C1)CC2C3 (centres undefined) | 0 |
| C=C(CCC(O)c1cccc2ccccc12)C1COC2(CCCCC2)OO1 (centres undefined) | 0 |
| C=C(CCC(O)c1ccccc1)C1COC2(OO1)C1CC3CC(C1)CC2C3 (centres undefined) | 2 |
| C=C(CCC(O)c1ccc(Cl)cc1)C1COC2(CCCCC2)OO1 (centres undefined) | 0 |
| C=C(CCC(O)c1ccccc1)C1COC2(CCCCC2)OO1 (centres undefined) | 0 |
| C=C(CCC(O)c1ccc(-c2ccccc2)cc1)C1COC2(CCCCC2)OO1 (centres undefined) | 0 |

system: Mus musculus; experiment: Mean survival time calculated for the mice which died during 28 day observation period at the dose of 48 mg/kg/day i.m.; type: functional; details: route intramuscular

| SMILES | MST |
| --- | --- |
| C=C(CCC(O)c1cccc2ccccc12)C1COC2(CCCCC2)OO1 (centres undefined) | 14.2 |
| C=C(CCC(O)c1ccc(Cl)cc1)C1COC2(CCCCC2)OO1 (centres undefined) | 16 |
| C=C(CCC(O)c1ccccc1)C1COC2(CCCCC2)OO1 (centres undefined) | 12.6 |
| C=C(CCC(O)c1ccc(-c2ccccc2)cc1)C1COC2(CCCCC2)OO1 (centres undefined) | 10.6 |

system: Mus musculus; experiment: In vivo antimalarial activity against Plasmodium yoelii in Swiss mice (Mus musculus) on day 4 at the dose of 96 mg/kg/day orally; type: functional; details: route oral

| SMILES | Suppression [%] |
| --- | --- |
| C=C(CCC(O)c1ccc(Cl)cc1)C1COC2(OO1)C1CC3CC(C1)CC2C3 (centres undefined) | 100 |
| C=C(CCC(O)c1cccc2ccccc12)C1COC2(CCCCC2)OO1 (centres undefined) | 68.4 |
| C=C(CCC(O)c1ccc(-c2ccccc2)cc1)C1COC2(OO1)C1CC3CC(C1)CC2C3 (centres undefined) | 100 |
| C=C(CCC(O)c1ccccc1)C1COC2(OO1)C1CC3CC(C1)CC2C3 (centres undefined) | 100 |
| C=C(CCC(O)c1ccc(Cl)cc1)C1COC2(CCCCC2)OO1 (centres undefined) | 88.8 |
| C=C(CCC(O)c1ccccc1)C1COC2(CCCCC2)OO1 (centres undefined) | 65 |
| C=C(CCC(O)c1ccc(-c2ccccc2)cc1)C1COC2(CCCCC2)OO1 (centres undefined) | 100 |

system: Mus musculus; experiment: Number of survival out of 5 mice on day 28 at the dose of 96 mg/kg/day i.m.; type: functional; details: route intramuscular

| SMILES | Activity |
| --- | --- |
| C=C(CCC(O)c1ccc(Cl)cc1)C1COC2(OO1)C1CC3CC(C1)CC2C3 (centres undefined) | 5 |
| C=C(CCC(O)c1cccc2ccccc12)C1COC2(CCCCC2)OO1 (centres undefined) | 4 |
| C=C(CCC(O)c1ccc(-c2ccccc2)cc1)C1COC2(OO1)C1CC3CC(C1)CC2C3 (centres undefined) | 3 |
| C=C(CCC(O)c1ccccc1)C1COC2(OO1)C1CC3CC(C1)CC2C3 (centres undefined) | 5 |
| C=C(CCC(O)c1ccc(Cl)cc1)C1COC2(CCCCC2)OO1 (centres undefined) | 5 |
| C=C(CCC(O)c1ccccc1)C1COC2(CCCCC2)OO1 (centres undefined) | 0 |
| C=C(CCC(O)c1ccc(-c2ccccc2)cc1)C1COC2(CCCCC2)OO1 (centres undefined) | 4 |

system: Mus musculus; experiment: Number of survival out of 5 mice on day 28 at the dose of 24 mg/kg/day orally; type: functional; details: route oral

| SMILES | Activity |
| --- | --- |
| C=C(CCC(O)c1ccc(-c2ccccc2)cc1)C1COC2(OO1)C1CC3CC(C1)CC2C3 (centres undefined) | 0 |
| C=C(CCC(O)c1ccccc1)C1COC2(CCCCC2)OO1 (centres undefined) | 0 |

system: Mus musculus; experiment: In vivo antimalarial activity against Plasmodium yoelii in Swiss mice (Mus musculus) on day 4 at the dose of 96 mg/kg/day intramuscular.; type: functional; details: not given

| SMILES | Suppression [%] |
| --- | --- |
| C=C(CCC(O)c1ccc(Cl)cc1)C1COC2(OO1)C1CC3CC(C1)CC2C3 (centres undefined) | 100 |
| C=C(CCC(O)c1cccc2ccccc12)C1COC2(CCCCC2)OO1 (centres undefined) | 100 |
| C=C(CCC(O)c1ccc(-c2ccccc2)cc1)C1COC2(OO1)C1CC3CC(C1)CC2C3 (centres undefined) | 79 |
| C=C(CCC(O)c1ccccc1)C1COC2(OO1)C1CC3CC(C1)CC2C3 (centres undefined) | 100 |
| C=C(CCC(O)c1ccc(Cl)cc1)C1COC2(CCCCC2)OO1 (centres undefined) | 100 |
| C=C(CCC(O)c1ccccc1)C1COC2(CCCCC2)OO1 (centres undefined) | 94.5 |
| C=C(CCC(O)c1ccc(-c2ccccc2)cc1)C1COC2(CCCCC2)OO1 (centres undefined) | 96.4 |
